≈ marks a conversion by molar mass, not a printed value. Calls of active or inactive are those of the source. The rule behind the calls is not given here.
How the values were obtained:
Enterococcus faecium = experiment: Antimicrobial activity against vancomycin-resistant Enterococcus faecium VanA by micro broth dilution or agar based method; assay type: functional
Staphylococcus aureus [1] = experiment: Antimicrobial activity against methicillin-resistant Staphylococcus aureus OIT971 by micro broth dilution or agar based method; assay type: functional, organism-based
Acinetobacter baumannii = experiment: Antimicrobial activity against Acinetobacter baumannii IID876 by micro broth dilution or agar based method; assay type: functional
Pseudomonas aeruginosa = experiment: Antimicrobial activity against Pseudomonas aeruginosa PAO1 by micro broth dilution or agar based method; assay type: functional
Escherichia coli = experiment: Antimicrobial activity against Escherichia coli ATCC 25922 by micro broth dilution or agar based method; assay type: functional
Staphylococcus aureus [2] = experiment: Antimicrobial activity against Staphylococcus aureus Smith by micro broth dilution or agar based method; assay type: functional
Streptococcus pneumoniae = experiment: Antimicrobial activity against Streptococcus pneumoniae IID553 by micro broth dilution or agar based method; assay type: functional

Structure (SMILES) | MIC (Enterococcus faecium) | growth inhibition (GI) (Staphylococcus aureus [1]) | MIC (Acinetobacter baumannii) | MIC (Pseudomonas aeruginosa) | MIC (Escherichia coli) | MIC (Staphylococcus aureus [2]) | MIC (Streptococcus pneumoniae)
N[C@@H]1COC[C@H]1Oc1ccc2ncc(F)c(CCC34CCC(NCc5ccc6c(n5)NC(=O)CO6)(CC3)CO4)c2n1 | 8 µg/mL (≈ 14.2 µM) | Active | 1 µg/mL (≈ 1.77 µM) | 16 µg/mL (≈ 28.3 µM) | 4 µg/mL (≈ 7.08 µM) | 0.125 µg/mL (≈ 0.221 µM) | 0.5 µg/mL (≈ 0.886 µM)
N#CCCCOc1ccc2ncc(F)c(CCC34CCC(NCc5ccc6c(n5)NC(=O)CO6)(CC3)CO4)c2n1 | 2 µg/mL (≈ 3.66 µM) | Active | 2 µg/mL (≈ 3.66 µM) | 16 µg/mL (≈ 29.3 µM) | 4 µg/mL (≈ 7.32 µM) | 0.031 µg/mL (≈ 0.0567 µM) | 0.5 µg/mL (≈ 0.915 µM)
O=C1COc2ccc(CNC34CCC(CCc5c(F)cnc6ccc(OC[C@@H]7C[C@@H](O)[C@@H](O)C7)nc56)(CC3)OC4)nc2N1 | 4 µg/mL (≈ 6.74 µM) | Active | 8 µg/mL (≈ 13.5 µM) | 32 µg/mL (≈ 53.9 µM) | 16 µg/mL (≈ 27 µM) | 0.125 µg/mL (≈ 0.211 µM) | 0.5 µg/mL (≈ 0.842 µM)
NCCCOc1ccc2ncc(F)c(CCC34CCC(NCc5ccc6c(n5)NC(=O)CO6)(CC3)CO4)c2n1 | – | Active | – | – | – | – | –
O=C1COc2ccc(CNC34CCC(CCc5c(F)cnc6ccc(OCC7(CO)CC7)nc56)(CC3)OC4)nc2N1 | 4 µg/mL (≈ 7.1 µM) | Active | 4 µg/mL (≈ 7.1 µM) | 32 µg/mL (≈ 56.8 µM) | 16 µg/mL (≈ 28.4 µM) | 0.063 µg/mL (≈ 0.112 µM) | 1 µg/mL (≈ 1.77 µM)
COc1ccc2ncc(F)c(C[C@H](O)C34CCC(NCc5ccc6c(n5)NC(=O)CO6)(CC3)CO4)c2n1 | 0.5 µg/mL (≈ 0.981 µM) | – | 0.5 µg/mL (≈ 0.981 µM) | 8 µg/mL (≈ 15.7 µM) | 2 µg/mL (≈ 3.93 µM) | 0.02 µg/mL (≈ 0.0393 µM) | 0.05 µg/mL (≈ 0.0981 µM)
NCC1(COc2ccc3ncc(F)c(CCC45CCC(NCc6ccc7c(n6)NC(=O)CO7)(CC4)CO5)c3n2)CC1 | 16 µg/mL (≈ 28.4 µM) | Active | 4 µg/mL (≈ 7.11 µM) | 32 µg/mL (≈ 56.9 µM) | 8 µg/mL (≈ 14.2 µM) | 1 µg/mL (≈ 1.78 µM) | 0.5 µg/mL (≈ 0.889 µM)
O=C1COc2ccc(CNC34CCC(CCc5c(F)cnc6ccc(OCC(CO)CO)nc56)(CC3)OC4)nc2N1 | 4 µg/mL (≈ 7.05 µM) | Active | 8 µg/mL (≈ 14.1 µM) | 32 µg/mL (≈ 56.4 µM) | 16 µg/mL (≈ 28.2 µM) | 0.125 µg/mL (≈ 0.22 µM) | 0.5 µg/mL (≈ 0.881 µM)
NCC(O)COc1ccc2ncc(F)c(CCC34CCC(NCc5ccc6c(n5)NC(=O)CO6)(CC3)CO4)c2n1 (stereo not given) | 16 µg/mL (≈ 29 µM) | Active | 32 µg/mL (≈ 57.9 µM) | 16 µg/mL (≈ 29 µM) | 8 µg/mL (≈ 14.5 µM) | 2 µg/mL (≈ 3.62 µM) | 1 µg/mL (≈ 1.81 µM)
N[C@H]1COC[C@@H]1Oc1ccc2ncc(F)c(CCC34CCC(NCc5ccc6c(n5)NC(=O)CO6)(CC3)CO4)c2n1 | 16 µg/mL (≈ 28.3 µM) | Active | 2 µg/mL (≈ 3.54 µM) | 32 µg/mL (≈ 56.7 µM) | 8 µg/mL (≈ 14.2 µM) | 0.25 µg/mL (≈ 0.443 µM) | 4 µg/mL (≈ 7.08 µM)
O=C1COc2ccc(CNC34CCC(CCc5c(F)cnc6ccc(OCc7cc(=O)c(O)c[nH]7)nc56)(CC3)OC4)nc2N1 | 64 µg/mL (≈ 106 µM) | Active | 16 µg/mL (≈ 26.6 µM) | 16 µg/mL (≈ 26.6 µM) | 16 µg/mL (≈ 26.6 µM) | 8 µg/mL (≈ 13.3 µM) | 32 µg/mL (≈ 53.1 µM)
COC(=O)[C@@H]1C[C@@H]1COc1ccc2ncc(F)c(CCC34CCC(NCc5ccc6c(n5)NC(=O)CO6)(CC3)CO4)c2n1 (relative stereo) | – | Active | – | – | – | – | –
COC(=O)C1(COc2ccc3ncc(F)c(CCC45CCC(NCc6ccc7c(n6)NC(=O)CO7)(CC4)CO5)c3n2)CC1 | 16 µg/mL (≈ 27 µM) | Active | 8 µg/mL (≈ 13.5 µM) | 16 µg/mL (≈ 27 µM) | 16 µg/mL (≈ 27 µM) | 0.125 µg/mL (≈ 0.211 µM) | 2 µg/mL (≈ 3.38 µM)
O=C(O)COc1ccc2ncc(F)c(CCC34CCC(NCc5ccc6c(n5)NC(=O)CO6)(CC3)CO4)c2n1 | 16 µg/mL (≈ 29.8 µM) | Active | 16 µg/mL (≈ 29.8 µM) | 16 µg/mL (≈ 29.8 µM) | 16 µg/mL (≈ 29.8 µM) | 16 µg/mL (≈ 29.8 µM) | 16 µg/mL (≈ 29.8 µM)
O=C1COc2ccc(CNC34CCC(CCc5c(F)cnc6ccc(OC[C@H]7C[C@H]7C(=O)O)nc56)(CC3)OC4)nc2N1 (relative stereo) | 2 µg/mL (≈ 3.46 µM) | Active | 32 µg/mL (≈ 55.4 µM) | 32 µg/mL (≈ 55.4 µM) | 32 µg/mL (≈ 55.4 µM) | 0.125 µg/mL (≈ 0.216 µM) | 0.125 µg/mL (≈ 0.216 µM)
NC1(COc2ccc3ncc(F)c(CCC45CCC(NCc6ccc7c(n6)NC(=O)CO7)(CC4)CO5)c3n2)CC1 | 8 µg/mL (≈ 14.6 µM) | Active | 1 µg/mL (≈ 1.82 µM) | 16 µg/mL (≈ 29.2 µM) | 2 µg/mL (≈ 3.65 µM) | 0.25 µg/mL (≈ 0.456 µM) | 1 µg/mL (≈ 1.82 µM)
N[C@H]1C(=O)N[C@@H]1COc1ccc2ncc(F)c(CCC34CCC(NCc5ccc6c(n5)NC(=O)CO6)(CC3)CO4)c2n1 | 16 µg/mL (≈ 27.7 µM) | Active | 32 µg/mL (≈ 55.4 µM) | 32 µg/mL (≈ 55.4 µM) | 16 µg/mL (≈ 27.7 µM) | 0.5 µg/mL (≈ 0.866 µM) | 0.5 µg/mL (≈ 0.866 µM)
O=C1COc2ccc(CNC34CCC(CCc5c(F)cnc6ccc(OCCC(F)(F)C(=O)O)nc56)(CC3)OC4)nc2N1 | 16 µg/mL (≈ 26.6 µM) | Active | 16 µg/mL (≈ 26.6 µM) | 16 µg/mL (≈ 26.6 µM) | 16 µg/mL (≈ 26.6 µM) | 16 µg/mL (≈ 26.6 µM) | 16 µg/mL (≈ 26.6 µM)
CCOC(=O)COc1ccc2ncc(F)c(CCC34CCC(NCc5ccc6c(n5)NC(=O)CO6)(CC3)CO4)c2n1 | 16 µg/mL (≈ 28.3 µM) | Active | 8 µg/mL (≈ 14.1 µM) | 16 µg/mL (≈ 28.3 µM) | 16 µg/mL (≈ 28.3 µM) | 0.25 µg/mL (≈ 0.442 µM) | 16 µg/mL (≈ 28.3 µM)

From ChEMBL document CHEMBL3603744, “Structure activity relationship of C-2 ether substituted 1,5-naphthyridine analogs of oxabicyclooctane-linked novel bacterial topoisomerase inhibitors as broad-spectrum antibacterial agents (Part-5)” (Bioorg Med Chem Lett, 2015)
